Results reported in US9833497B2, “Human originated EGF domain proteins and use of the same” (CHENGDU SOURCEBIO LIMITED-LIABILITY COMPANY, priority 2013, dated 2017).

Columns and labels:
Format in all cases: cell-based
Pseudomonas aeruginosa = test: MIC against Gram-negative bacteria: Pseudomonas aeruginosa; conditions: 5×10^5 CFU/mL
Outline: (§1)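 Broth microdilution, LB medium, final inoculum 5×10^5 CFU/mL from McFarland 0.5 cultures. Recombinant human EGF domain proteins tested in two-fold steps, n=3. MIC: lowest concentration, no growth.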

Klebsiella pneumonia = test: MIC against Gram-negative bacteria: Klebsiella pneumonia; conditions: 5×10^5 CFU/mL
Outline: as §1

Moraxella catarrhalis = test: MIC against Gram-negative bacteria: Moraxella catarrhalis; conditions: 5×10^5 CFU/mL
Outline: as §1

E. coli BL21 = test: MIC against Gram-negative bacteria: E. coli BL21; conditions: 5×10^5 CFU/mL
Outline: as §1

Enterobacter cloacae = test: MIC against Gram-negative bacteria: Enterobacter cloacae; conditions: 5×10^5 CFU/mL
Outline: as §1

Aeromonas hydrophila = test: MIC against Gram-negative bacteria: Aeromonas hydrophila; conditions: 5×10^5 CFU/mL
Outline: as §1

E. coli DH5α = test: Antibacterial activity: MIC and growth curve against E. coli DH5α in 96-well plate; conditions: minimal inhibitory concentration against E. coli DH5α; 96-well plate, 5×10^5 CFU/mL, 37° C., judged after 8 h
Outline: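 Log-phase DH5α (OD600 about 0.5, 37° C, 185 rpm in LB) was pelleted, resuspended in fresh LB and seeded at 5×10^5 CFU/mL with recombinant protein at 50, 25 and 12.5 μg/mL (two-fold series), in triplicate. Plates were shaken at 175 rpm, 37° C, and OD600 was read every 30 min. MIC was the lowest concentration with no growth.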

Citrobacter diversus = test: MIC against Gram-negative bacteria: Citrobacter diversus; conditions: 5×10^5 CFU/mL
Outline: as §1

Proteus mirabilis = test: MIC against Gram-negative bacteria: Proteus mirabilis; conditions: 5×10^5 CFU/mL
Outline: as §1

Serratia marcescens = test: MIC against Gram-negative bacteria: Serratia marcescens; conditions: 5×10^5 CFU/mL
Outline: as §1

Proteus vulgaris = test: MIC against Gram-negative bacteria: Proteus vulgaris; conditions: 5×10^5 CFU/mL
Outline: as §1

[1] = Pseudomonas aeruginosa, 10 h cultivation at 37° C.
[2] = Klebsiella pneumonia, 10 h cultivation at 37° C.
[3] = Moraxella catarrhalis, 10 h cultivation at 37° C.
[4] = E. coli BL21, 10 h cultivation at 37° C.
[5] = Enterobacter cloacae, 10 h cultivation at 37° C.
[6] = Aeromonas hydrophila, 10 h cultivation at 37° C.
[7] = Citrobacter diversus, 10 h cultivation at 37° C.
[8] = Proteus mirabilis, 10 h cultivation at 37° C.
[9] = Serratia marcescens, 10 h cultivation at 37° C.
[10] = Proteus vulgaris, 10 h cultivation at 37° C.

Q: Which “MIC against P. aeruginosa” value (Pseudomonas aeruginosa; [1]) does the source give for “PRT1481 (PVNLCKPSPCMNEGSCVLQNGSYRCKCRDGWEGPHCE; listed as Homo sapiens)” here?
A: 50 µg/mL

Q: And the “MIC against K. pneumonia” value (Klebsiella pneumonia; [2])?
A: 12.5 µg/mL

Q: What about the “MIC against M. catarrhalis” value (Moraxella catarrhalis; [3]) of the same substance?
A: 50 µg/mL

Q: And the “MIC against E. coli BL21” value (E. coli BL21; [4])?
A: 25 µg/mL

Q: And the “MIC against E. cloacae” value (Enterobacter cloacae; [5])?
A: 50 µg/mL

Q: What about the “MIC against A. hydrophila” value (Aeromonas hydrophila; [6]) of the same substance?
A: 25 µg/mL

Q: And the MIC (E. coli DH5α)?
A: 12.5 µg/mL

Q: And the “MIC against C. diversus” value (Citrobacter diversus; [7])?
A: 12.5 µg/mL

Q: What about the “MIC against P. mirabilis” value (Proteus mirabilis; [8]) of the same substance?
A: 12.5 µg/mL

Q: What about the “MIC against S. marcescens” value (Serratia marcescens; [9]) of the same substance?
A: 25 µg/mL

Q: And the “MIC against P. vulgaris” value (Proteus vulgaris; [10])?
A: 50 µg/mL

Q: What does the source list for “PRT1249 (NQCACNSSPCEQQSGRCQCRERTFGARCD; listed as Homo sapiens)”?
A: MIC against P. aeruginosa (Pseudomonas aeruginosa; Pseudomonas aeruginosa, 96-well plate, 37° C., 10 h): 50 µg/mL; MIC against K. pneumonia (Klebsiella pneumonia; Klebsiella pneumonia, 96-well plate, 37° C., 10 h): 12.5 µg/mL; MIC against M. catarrhalis (Moraxella catarrhalis; Moraxella catarrhalis, 96-well plate, 37° C., 10 h): 12.5 µg/mL; MIC against E. coli BL21 (E. coli BL21; E. coli BL21, 96-well plate, 37° C., 10 h): 12.5 µg/mL; MIC against E. cloacae (Enterobacter cloacae; Enterobacter cloacae, 96-well plate, 37° C., 10 h): 50 µg/mL; MIC against A. hydrophila (Aeromonas hydrophila; Aeromonas hydrophila, 96-well plate, 37° C., 10 h): 12.5 µg/mL; MIC (E. coli DH5α): 12.5 µg/mL; MIC against C. diversus (Citrobacter diversus; Citrobacter diversus, 96-well plate, 37° C., 10 h): 50 µg/mL; MIC against P. mirabilis (Proteus mirabilis; Proteus mirabilis, 96-well plate, 37° C., 10 h): 25 µg/mL; MIC against S. marcescens (Serratia marcescens; Serratia marcescens, 96-well plate, 37° C., 10 h): 25 µg/mL; MIC against P. vulgaris (Proteus vulgaris; Proteus vulgaris, 96-well plate, 37° C., 10 h): 50 µg/mL

Q: How did the “MIC (μg/mL) P. aeruginosa” value (Pseudomonas aeruginosa; P. aeruginosa, 10 h cultivation at 37° C.) turn out when “PRT184 (DLNYCTHHSPCKNGATCSNSGQRSYTCTCRPGYTGVDCE; listed as Homo sapiens)” was run?
A: 25 µg/mL

Q: What about the “MIC (μg/mL) K. pneumonia” value (Klebsiella pneumonia; K. pneumonia, 10 h cultivation at 37° C.) of the same substance?
A: 50 µg/mL

Q: What about the “MIC (μg/mL) M. catarrhalis” value (Moraxella catarrhalis; M. catarrhalis, 10 h cultivation at 37° C.) of the same substance?
A: 50 µg/mL

Q: What about the “MIC (μg/mL) E. coli BL21” value (E. coli BL21; [4]) of the same substance?
A: 12.5 µg/mL

Q: And the “MIC (μg/mL) E. cloacae” value (Enterobacter cloacae; E. cloacae, 10 h cultivation at 37° C.)?
A: 25 µg/mL

Q: And the “MIC (μg/mL) A. hydrophila” value (Aeromonas hydrophila; A. hydrophila, 10 h cultivation at 37° C.)?
A: 12.5 µg/mL

Q: And the MIC (E. coli DH5α)?
A: 25 µg/mL

Q: And the “MIC (μg/mL) C. diversus” value (Citrobacter diversus; C. diversus, 10 h cultivation at 37° C.)?
A: 25 µg/mL

Q: And the “MIC (μg/mL) P. mirabilis” value (Proteus mirabilis; P. mirabilis, 10 h cultivation at 37° C.)?
A: 25 µg/mL

Q: What about the “MIC (μg/mL) S. marcescens” value (Serratia marcescens; S. marcescens, 10 h cultivation at 37° C.) of the same substance?
A: 25 µg/mL

Q: What about the “MIC (μg/mL) P. vulgaris” value (Proteus vulgaris; P. vulgaris, 10 h cultivation at 37° C.) of the same substance?
A: 12.5 µg/mL

Q: For “PRT741 (SAHPCARDNGGCSHICIAKGDGTPRCSCPVHLVLLQNLLTCG; listed as Homo sapiens)”, which “MIC P. aeruginosa” value (Pseudomonas aeruginosa; 96-well plate, 37° C., 10 h) is on record?
A: 12.5 µg/mL

Q: And the “MIC K. pneumonia” value (Klebsiella pneumonia; 96-well plate, 37° C., 10 h)?
A: 25 µg/mL

Q: What about the “MIC M. catarrhalis” value (Moraxella catarrhalis; 96-well plate, 37° C., 10 h) of the same substance?
A: 12.5 µg/mL

Q: And the “MIC E. coli BL21” value (E. coli BL21; 96-well plate, 37° C., 10 h)?
A: 50 µg/mL

Q: What about the “MIC E. cloacae” value (Enterobacter cloacae; 96-well plate, 37° C., 10 h) of the same substance?
A: 50 µg/mL

Q: What about the “MIC A. hydrophila” value (Aeromonas hydrophila; 96-well plate, 37° C., 10 h) of the same substance?
A: 12.5 µg/mL

Q: What about the MIC (E. coli DH5α) of the same substance?
A: 12.5 µg/mL

Q: And the “MIC C. diversus” value (Citrobacter diversus; 96-well plate, 37° C., 10 h)?
A: 50 µg/mL

Q: And the “MIC P. mirabilis” value (Proteus mirabilis; 96-well plate, 37° C., 10 h)?
A: 50 µg/mL

Q: And the “MIC S. marcescens” value (Serratia marcescens; 96-well plate, 37° C., 10 h)?
A: 12.5 µg/mL

Q: What about the “MIC P. vulgaris” value (Proteus vulgaris; 96-well plate, 37° C., 10 h) of the same substance?
A: 25 µg/mL

Q: “PRT1364 (GELKCPNGCSGHGRCVNGQCVCDEGYTGEDCS; listed as Homo sapiens)” was tested. Which “MIC against P. aeruginosa” value (Pseudomonas aeruginosa; [1]) did it give?
A: 25 µg/mL

Q: What about the “MIC against K. pneumonia” value (Klebsiella pneumonia; [2]) of the same substance?
A: 50 µg/mL

Q: And the “MIC against M. catarrhalis” value (Moraxella catarrhalis; [3])?
A: 12.5 µg/mL

Q: And the “MIC against E. coli BL21” value (E. coli BL21; [4])?
A: 12.5 µg/mL

Q: What about the “MIC against E. cloacae” value (Enterobacter cloacae; [5]) of the same substance?
A: 25 µg/mL

Q: And the “MIC against A. hydrophila” value (Aeromonas hydrophila; [6])?
A: 25 µg/mL

Q: And the MIC (E. coli DH5α)?
A: 25 µg/mL

Q: What about the “MIC against C. diversus” value (Citrobacter diversus; [7]) of the same substance?
A: 12.5 µg/mL

Q: What about the “MIC against P. mirabilis” value (Proteus mirabilis; [8]) of the same substance?
A: 12.5 µg/mL

Q: What about the “MIC against S. marcescens” value (Serratia marcescens; [9]) of the same substance?
A: 12.5 µg/mL

Q: And the “MIC against P. vulgaris” value (Proteus vulgaris; [10])?
A: 12.5 µg/mL

Q: For “PRT492 (CICYGHASSCPWDETTKKLQCQCEHNTCGESCNRCCPGYHQQPWRPGTVSSGNTCEA; listed as Homo sapiens)”, which “MIC against P. aeruginosa” value (Pseudomonas aeruginosa; 96-well plate, 37° C., 10 h) is on record?
A: 25 µg/mL

Q: What about the “MIC against K. pneumonia” value (Klebsiella pneumonia; 96-well plate, 37° C., 10 h) of the same substance?
A: 12.5 µg/mL

Q: And the “MIC against M. catarrhalis” value (Moraxella catarrhalis; 96-well plate, 37° C., 10 h)?
A: 12.5 µg/mL

Q: And the “MIC against E. coli BL21” value (E. coli BL21; 96-well plate, 37° C., 10 h)?
A: 50 µg/mL

Q: What about the “MIC against E. cloacae” value (Enterobacter cloacae; 96-well plate, 37° C., 10 h) of the same substance?
A: 25 µg/mL

Q: And the “MIC against A. hydrophila” value (Aeromonas hydrophila; 96-well plate, 37° C., 10 h)?
A: 50 µg/mL

Q: And the MIC (E. coli DH5α)?
A: 25 µg/mL

Q: What about the “MIC against C. diversus” value (Citrobacter diversus; 96-well plate, 37° C., 10 h) of the same substance?
A: 25 µg/mL

Q: And the “MIC against P. mirabilis” value (Proteus mirabilis; 96-well plate, 37° C., 10 h)?
A: 50 µg/mL

Q: And the “MIC against S. marcescens” value (Serratia marcescens; 96-well plate, 37° C., 10 h)?
A: 50 µg/mL

Q: And the “MIC against P. vulgaris” value (Proteus vulgaris; 96-well plate, 37° C., 10 h)?
A: 12.5 µg/mL

Q: What does the source list for “PRT614 (CNCNLYGTMKQQSSCNPVTGQCECLPHVTGQDCGACDPGFYNLQSGQGCER; listed as Homo sapiens)”?
A: MIC P. aeruginosa (Pseudomonas aeruginosa; 96-well plate, 37° C., 10 h): 50 µg/mL; MIC K. pneumonia (Klebsiella pneumonia; 96-well plate, 37° C., 10 h): 50 µg/mL; MIC M. catarrhalis (Moraxella catarrhalis; 96-well plate, 37° C., 10 h): 12.5 µg/mL; MIC E. coli BL21 (E. coli BL21; 96-well plate, 37° C., 10 h): 50 µg/mL; MIC E. cloacae (Enterobacter cloacae; 96-well plate, 37° C., 10 h): 12.5 µg/mL; MIC A. hydrophila (Aeromonas hydrophila; 96-well plate, 37° C., 10 h): 12.5 µg/mL; MIC (E. coli DH5α): 50 µg/mL; MIC C. diversus (Citrobacter diversus; 96-well plate, 37° C., 10 h): 25 µg/mL; MIC P. mirabilis (Proteus mirabilis; 96-well plate, 37° C., 10 h): 25 µg/mL; MIC S. marcescens (Serratia marcescens; 96-well plate, 37° C., 10 h): 25 µg/mL; MIC P. vulgaris (Proteus vulgaris; 96-well plate, 37° C., 10 h): 12.5 µg/mL
